Target: T1, OST6 complex (Saccharomyces cerevisiae, UniProt P39007)
T1 construct: were purified separately from strains expressing only one type of complex; made in house; host or cells: Saccharomyces cerevisiae, BY4742-derived strain ost3::LEU2MX6 OST4-1D4::kanMX6 YEp352-OST6
Assay: Synthetic LLO preferences and OST activity comparison, OST6 complex
Assay type: biochemical
Conditions: OST6 complex 0.5 μM, 25 μM TAMRA-YANATS, 50 μM LLO; n = 3
Description: Figure 5 OST3 complex turns over both glycosylation substrates faster than the OST6 complex, but with similar substrate affinities.A, enzyme activity of OST3 and OST6 complexes. Reactions were performed with 25 μM peptide TAMRA-YANATS, 50 μM LLO C20, and varying concentrations of purified OST3 complex (blue) or OST6 complex (red). Glycopeptide product was measured by UPLC and initial rates of reaction were determined by linear regression of the initial phase of the reaction. Turnover rates were determined by linear regression of the initial rates of reaction measured across the enzyme concentrations of 0.01–0.1 μM for OST3 complex and 0.1–0.5 μM for OST6 complex. Error bars indicate standard deviations from the mean of three reaction sets (n = 3). B, synthetic LLO preferences of OST3 and OST6 complexes. […] Turnover rates were determined by linear regression of the initial phase of the reaction and accounting for the enzyme concentration in the reaction. […] C, quantification of kinetic parameters for the synthetic LLO C20. […] Turnover rates were determined by linear regression of the initial phase of the reaction and accounting for the enzyme concentration in the reaction. […] D, quantification of kinetic parameters for the peptide TAMRA-YANATS. […] Turnover rates were determined by linear regression of the initial phase of the reaction and accounting for the enzyme concentration in the reaction. […]

Compound: CC(=O)N[C@H]1[C@@H](OP(=O)(O)OP(=O)(O)OC/C=C(\C)CC/C=C(\C)CCC=C(C)C)O[C@H](CO)[C@@H](O[C@@H]2O[C@H](CO)[C@@H](O)[C@H](O)[C@H]2NC(C)=O)[C@@H]1O [LLO C15]
- turnover rate ranking among LLO analogs: lowest reaction rates
